The values below come from US7855202B2, “Imidazopyridine derivatives as A2B adenosine receptor antagonists” (Laboratorios Almirall, S.A., priority 2005, dated 2010).

In this experiment the target is T1, human A2B receptor (Homo sapiens, UniProt P29275).
T1 construct: membranes prepared from them
T1 sequence (P29275 1-332): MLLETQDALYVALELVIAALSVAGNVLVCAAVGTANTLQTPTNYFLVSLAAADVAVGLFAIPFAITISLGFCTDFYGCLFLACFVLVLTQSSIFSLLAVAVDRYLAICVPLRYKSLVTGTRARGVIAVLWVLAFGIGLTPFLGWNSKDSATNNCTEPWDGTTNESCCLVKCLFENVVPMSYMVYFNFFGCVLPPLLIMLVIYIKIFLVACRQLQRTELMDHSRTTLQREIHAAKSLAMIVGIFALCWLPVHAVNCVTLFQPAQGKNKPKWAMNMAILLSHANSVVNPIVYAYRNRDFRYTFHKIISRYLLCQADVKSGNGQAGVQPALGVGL
As to the kind of experiment: Adenosine 2B receptor subtype competition radioligand binding assay ([3H]-DPCPX, membranes of HEK293 cells). To be noted: binding activity, 35 nM [3H]-DPCPX, A2B membranes from HEK293 cells. How it is done:
Adenosine 2B Receptor Subtype Competition Radioligand Binding Assay
A2B membranes were prepared from HEK293 cells stably expressing the human A2B receptor that were purchased from Euroscreen (ES-013-C). Competition assays were carried out incubating in polypropylene 96 well-plates (no 267245, NUNC) containing 2 μl of either 1% DMSO solution, test compound or 100 μM 5′NECA (SIGMA E-2387) for non-specific binding, 100 μg of A2B-membranes (prepared in Tris-HCl 50 mM pH 6.5, MgCl2 10 mM, EDTA 1 mM, benzamidine 0.1 mM; buffer A) and 35 nM [^3H]-DPCPX (TRK1064, 128 Ci/mmol, Amersham), in a total volume of 200 μl of buffer A+2 UI/ml adenosine deaminase, for 60 minutes at room temperature. At the end of the incubation, samples were transferred to a GF/C filter plates (Milipore MAFCNOB50) pretreated for 15 min. with 250 μl of Tris-HCl 50 mM pH 6.5 (Buffer B). Samples were then filtered 4 times with 250 μl of buffer B. Samples were counted using 30 μl of Hisafe II (Perkin Elmer) in a Trilux counter.

Turning to `Fc1cnccc1-c1cc2nc(-c3ccncc3)[nH]c2nc1-c1cccnc1` [Example 12, 6-(3-Fluoropyridin-4-yl)-5-pyridin-3-yl-2-pyridin-4-yl-3H-imidazo[4,5-b]pyridine], the inhibitory constant (Ki) (commonly the equilibrium dissociation constant of an inhibitor or competing ligand from its target) amounted to 1.8 nM.

For the compound `O=c1[nH]c2cc(-c3c(F)cncc3F)c(-c3cccnc3)nc2[nH]1` [Example 67, 6-(3,5-Difluoropyridin-4-yl)-5-pyridin-3-yl-1,3-dihydro-2H-imidazo[4,5-b]pyridin-2-one], affinity was put at a Ki of 26 nM. This Ki lies about 14-fold higher than the previous one.

Consider `O=C(O)c1ccc(-c2nc3cc(-c4ccncc4F)c(-c4cccnc4)nc3[nH]2)cc1` [Example 11, 4-[6-(3-Fluoropyridin-4-yl)-5-pyridin-3-yl-3H-imidazo[4,5-b]pyridin-2-yl]benzoic acid], for which the Ki is 8 nM.

The compound `Cn1cncc1-c1nc2cc(-c3ccncc3F)c(-c3cccnc3)nc2[nH]1` [Example 46, 6-(3-Fluoropyridin-4-yl)-2-(1-methyl-1H-imidazol-5-yl)-5-pyridin-3-yl-3H-imidazo[4,5-b]pyridine] showed an inhibition constant Ki of 9.5 nM.

Turning to `Cc1ccc(-c2nc3cc(-c4ccncc4F)c(-c4cccnc4)nc3[nH]2)cc1F` [Example 37, 2-(3-Fluoro-4-methylphenyl)-6-(3-fluoropyridin-4-yl)-5-pyridin-3-yl-3H-imidazo[4,5-b]pyridine], the affinity corresponds to a Ki of 2.2 nM. This Ki is about 4.3-fold lower than that of the compound before.

Take `O=c1[nH]c2cc(-c3ccncc3F)c(-c3ncco3)nc2[nH]1` [Example 32, 6-(3-Fluoropyridin-4-yl)-5-(1,3-oxazol-2-yl)-1,3-dihydro-2H-imidazo[4,5-b]pyridin-2-one]: the inhibition constant (Ki) is 24 nM.

For the compound `Fc1ccc(Cc2nc3cc(-c4ccncc4F)c(-c4cccnc4)nc3[nH]2)cc1` [Example 16, 2-(4-Fluorobenzyl)-6-(3-fluoropyridin-4-yl)-5-pyridin-3-yl-3H-imidazo[4,6-b]pyridine], the Ki was determined as 24 nM.

For the compound `Fc1ccc(-c2nc3cc(-c4c(F)cncc4F)c(-c4cccnc4)nc3[nH]2)cc1` [Example 65, 6-(3,5-Difluoropyridin-4-yl)-2-(4-fluorophenyl)-5-pyridin-3-yl-3H-imidazo[4,5-b]pyridine], the affinity corresponds to a Ki of 2.8 nM.

The compound `COc1ccc(-c2nc3cc(-c4ccncc4F)c(-c4cccnc4)nc3[nH]2)cc1` [Example 6, 6-(3-Fluoropyridin-4-yl)-2-(4-methoxyphenyl)-6-pyridin-3-yl-3H-imidazo[4,5-b]pyridine] came in with a Ki of 0.8 nM.

`CN(C)c1ccc(-c2nc3cc(-c4ccncc4F)c(-c4cccnc4)nc3[nH]2)cc1` [Example 7, N-{4-[6-(3-Fluoropyridin-4-yl)-5-pyridin-3-yl-3H-imidazo[4,5-b]pyridin-2-yl]phenyl}-N,N-dimethylamine] gave a Ki of 1.7 nM.

For `O=c1[nH]c2cc(-c3ccncc3)c(-c3ccncc3F)nc2[nH]1` [Example 23, 5-(3-Fluoropyridin-4-yl)-6-pyridin-4-yl-1,3-dihydro-2H-imidazo[4,5-b]pyridin-2-one], the affinity corresponds to a Ki of 7 nM.

Consider `O=C(O)c1ccc(-c2nc3cc(-c4c(F)cncc4F)c(-c4cccnc4)nc3[nH]2)cc1` [Example 66, 4-[6-(3,5-Difluoropyridin-4-yl)-5-pyridin-3-yl-3H-imidazo[4,5-b]pyridin-2-yl]benzoic acid], for which the affinity corresponds to a Ki of 23 nM.

For the compound `Fc1cccc(-c2nc3cc(-c4ccncc4F)c(-c4cccnc4)nc3[nH]2)c1` [Example 38, 2-(3-Fluorophenyl)-6-(3-fluoropyridin-4-yl)-5-pyridin-3-yl-3H-imidazo[4,6-b]pyridine], the affinity, expressed as Ki, was 2.8 nM.

As to `Fc1cnccc1-c1cc2nc(-c3cccnc3)[nH]c2nc1-c1cccnc1` [Example 39, 6-(3-Fluoropyridin-4-yl)-2,5-dipyridin-3-yl-3H-imidazo[4,5-b]pyridine], affinity was put at a Ki of 3.8 nM. This Ki and that of the compound before are within 1.5-fold of each other.
